The text below walks through data of PMC11258883 (Protein Science : A Publication of the Protein Society, 2024).

The target in this experiment is T1, MenD (Escherichia coli, UniProt P17109).
T1 sequence (P17109 1-556): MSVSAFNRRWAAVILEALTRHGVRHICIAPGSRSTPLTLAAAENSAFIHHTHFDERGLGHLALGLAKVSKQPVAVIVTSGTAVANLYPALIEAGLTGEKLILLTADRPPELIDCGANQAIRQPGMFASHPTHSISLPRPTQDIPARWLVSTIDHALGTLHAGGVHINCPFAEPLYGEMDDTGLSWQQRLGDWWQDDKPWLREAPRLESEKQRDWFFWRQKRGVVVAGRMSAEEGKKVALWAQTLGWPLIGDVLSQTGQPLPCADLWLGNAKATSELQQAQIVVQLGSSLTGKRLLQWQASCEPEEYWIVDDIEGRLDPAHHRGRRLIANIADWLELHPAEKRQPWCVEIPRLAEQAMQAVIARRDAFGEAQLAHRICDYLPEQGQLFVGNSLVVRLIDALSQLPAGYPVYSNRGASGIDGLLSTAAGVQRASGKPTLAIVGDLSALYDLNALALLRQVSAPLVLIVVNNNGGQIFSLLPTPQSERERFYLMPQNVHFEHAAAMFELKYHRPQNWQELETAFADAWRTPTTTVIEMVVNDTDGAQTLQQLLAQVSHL
As to the kind of experiment: MenD activity assay, OD278 decrease. Format: biochemical. As to conditions: 66 nM MenD, 50 μM thiamine pyrophosphate, 660 μM 2-ketoglutarate, 5 mM MgSO4, pH 8.0; chorismate:isochorismate equilibrium mixture.

For `C=C(O[C@H]1C=CC=C(C(=O)O)[C@@H]1O)C(=O)O` [isochorismate], the “MenD activity assay, OD278 decrease” value is listed as “initial velocities were measured as decrease in OD278 upon MenD consumption of isochorismate”.
